Laboratory results: patent EP0539170A1, “Benzodiazepine derivatives and their use as antagonists of cholecystokinin and/or gastrin receptors” (priority 1991, dated 1993)
Counter-ions that a name gives are not always drawn.

target: T1, CCK Receptor (Pancreas) (Rattus norvegicus, UniProt P30551); assay: CCK Receptor Binding (Pancreas), inhibition of specific 125I-CCK-8 binding; parameters: species or system Sprague-Dawley rats; details: rat whole pancreas membranes; 50 pM 125I-CCK-8; 25°C for 2 hours
T1 construct: The whole pancreas was dissected free of fat tissue and was homogenized; from tissue; host or cells: rat pancreas membrane homogenate
T1 sequence (P30551 1-444): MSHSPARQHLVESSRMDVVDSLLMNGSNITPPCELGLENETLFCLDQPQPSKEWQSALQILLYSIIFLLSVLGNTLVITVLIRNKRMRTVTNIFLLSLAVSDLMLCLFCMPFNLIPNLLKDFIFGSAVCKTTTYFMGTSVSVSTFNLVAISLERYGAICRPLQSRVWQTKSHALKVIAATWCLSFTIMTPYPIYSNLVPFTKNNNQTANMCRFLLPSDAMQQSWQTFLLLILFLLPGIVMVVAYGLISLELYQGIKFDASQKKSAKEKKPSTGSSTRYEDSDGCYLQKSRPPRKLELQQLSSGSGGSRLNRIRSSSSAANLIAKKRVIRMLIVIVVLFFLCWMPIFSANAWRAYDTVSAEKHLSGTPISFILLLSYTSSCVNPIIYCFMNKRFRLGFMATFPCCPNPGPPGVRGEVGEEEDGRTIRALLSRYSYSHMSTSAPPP
In short: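 Rat pancreas homogenate (0.5 mg wet weight/ml) incubated 2 h at 25 °C with ¹²⁵I-Bolton Hunter-labelled sulphated CCK-8 in HEPES/EGTA/MgCl₂/NaCl buffer, pH 6.5. Bound ligand separated on GF/C filters and gamma-counted.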

IC50 [nM] | SMILES
310 | CCc1cccc(NC(=O)NC2N=C(N3CCCCCC3)c3ccccc3N(C)C2=O)c1 (single isomer, unassigned; (-)) [Example 67, (-)-N-[2,3-Dihydro-5-(homopiperidin-1-yl)-1-methyl-2-oxo-1H-1,4-benzodiazepin-3-yl]-N′-[3-ethylphenyl] urea hydrochloride]
2700 | CN1CCN(C2=NC(NC(=O)Nc3cccc(C(F)(F)F)c3)C(=O)N(C)c3ccccc32)CC1 (racemic) [Example 30, N-[3(R,S)-2,3-Dihydro-1-methyl-2-oxo-5-(4-methylpiperazin-1-yl)-1H-1,4-benzodiazepin-3-yl]-N′-[3-trifluoromethylphenyl] urea]
337 | CCCN1C(=O)C(NC(=O)Nc2cccc(C)c2)N=C(N2CCSCC2)c2ccccc21 (racemic) [Example 55, N-[3(R,S)-2,3-Dihydro-2-oxo-1-propyl-5-(thiomorpholin-4-yl)-1H-1,4-benzodiazepin-3-yl]-N′-[3-methylphenyl] urea]
> 3000 | CN1CCN(C2=NC(NC(=O)Nc3ccc(Cl)cc3)C(=O)N(C)c3ccccc32)CC1 (racemic) [Example 7, N-[3(R,S)-2,3-Dihydro-1-methyl-5-(4-methylpiperazin-1-yl-2-oxo-1H-1,4-benzodiazepin-3-yl] N′-[4-chlorophenyl]urea]
1800 | Cc1cccc(NC(=O)NC2N=C(N3CCN(C)CC3)c3ccccc3N(CC(C)C)C2=O)c1 (racemic) [Example 22, N-[3(R,S)-2,3-Dihydro-5-(4-methylpiperazin-1-yl)-1-(2-methylpropyl)-2-oxo-1H-1,4-benzodiazepin-3-yl]-N′-[3-methylphenyl] urea]
> 3000 | CCCN1C(=O)C(NC(=O)Nc2cccc(N(C)C)c2)N=C(N2CCN(C)CC2)c2ccccc21 (single isomer, unassigned; (-)) [Example 41, (-)-N-[2,3-Dihydro-5-(4-methylpiperazin-1-yl)-2-oxo-1-propyl-1H-1,4-benzodiazepin-3-yl]-N′-[3-(dimethylamino)phenyl] urea]
> 3000 | CN1CCN(C2=NC(NC(=O)Nc3cccc(C(=O)N(C)C)c3)C(=O)N(C)c3ccccc32)CC1 (racemic) [Example 15, N-[3(R,S)-2,3-Dihydro-1-methyl-2-oxo-5-(4-methylpiperazin-1-yl)-1H-1,4-benzodiazepin-3-yl]-N′-[3-(N,N-dimethylcarboxamido)phenyl] urea]
1920 | Cc1cccc(NC(=O)NC2N=C(N3CCCCCCC3)c3ccccc3N(C)C2=O)c1 (single isomer, unassigned; (-)) [Example 51, (-)-N-[2,3-Dihydro-5-(heptamethyleneimin-1-yl)-1-methyl-2-oxo-1H-1,4-benzodiazepin-3-yl]-N′-[3-methylphenyl] urea hydrochloride]
4720 | CCc1cccc(NC(=O)NC2N=C(N3CCN(C)CC3)c3ccccc3N(CC(C)C)C2=O)c1 (single isomer, unassigned; (-)) [Example 26, (-)-N-[2,3-Dihydro-5-(4-methylpiperazin-1-yl)-1-(2-methylpropyl)-2-oxo-1H-1,4-benzodiazepin-3-yl]-N#MIN#-[3-ethylphenyl] urea]
14.2 | CN1C(=O)C(NC(=O)Nc2ccccc2)N=C(N2CCCCCC2)c2ccccc21 (racemic) [Example 66, N-[3(R,S)-2,3-Dihydro-5-(homopiperidin-1-yl)-1-methyl-2-oxo-1H-1,4-benzodiazepin-3-yl]-N′-phenyl urea]
> 3000 | CCCN1C(=O)C(NC(=O)Nc2ccc3c(c2)N(C)CC3)N=C(N2CCN(C)CC2)c2ccccc21 (racemic) [Example 56, N-[3(R,S)-2,3-Dihydro-5-(4-methylpiperazin-1-yl)-2-oxo-1-propyl-1H-1,4-benzodiazepin-3-yl]-N#MIN#-[1-methyl-6-indolinyl] urea]
505 | Cc1cccc(NC(=O)NC2N=C(N3CCOCC3)c3ccccc3N(C)C2=O)c1 (racemic) [Example 3, N-[3(R,S)-2,3-Dihydro-1-methyl-5-(morpholin-4-yl)-2-oxo-1H-1,4-benzodiazepin-3-yl] N′-[3-methylphenyl] urea]
10.5 | CCCN1C(=O)C(NC(=O)Nc2cccc(C)c2)N=C(N2CCSCC2)c2ccccc21 (single isomer, unassigned; (+)) [Example 70, (+)-N-[2,3-Dihydro-2-oxo-1-propyl-5-(thiomorpholin-4-yl)-1H-1,4-benzodiazepin-3-yl]-N′-[3-methylphenyl] urea hydrochloride]
2300 | CN1CCN(C2=NC(NC(=O)Nc3cccc(O)c3)C(=O)N(C)c3ccccc32)CC1 (racemic) [Example 11, N-[3(R,S)-2,3-Dihydro-1-methyl-5-(4-methylpiperazin-1-yl)-2-oxo-1H-1,4-benzodiazepin-3-yl]-N#MIN#-[3-hydroxyphenyl] urea]
11.7 | Cc1cccc(NC(=O)NC2N=C(N3CCCCCCC3)c3ccccc3N(C)C2=O)c1 (single isomer, unassigned; (+)) [Example 52, (+)-N-[2,3-Dihydro-5-(heptamethyleneimin-1-yl)-1-methyl-2-oxo-1H-1,4-benzodiazepin-3-yl]-N′-[3-methylphenyl] urea hydrochloride]
